Experimental data as given in ChEMBL document CHEMBL1146065, “Structure-based optimization of azole antifungal agents by CoMFA, CoMSIA, and molecular docking” (2006).
≈ marks a conversion by molar mass, not a printed value.

Tests used:
Assay type in all cases: functional
Fonsecaea pedrosoi = assay: Antifungal activity against Fonsecaea pedrosoi
Sporothrix schenckii = assay: Antifungal activity against Sporothrix schenckii
Cryptococcus neoformans = assay: Antifungal activity against Cryptococcus neoformans
Candida albicans = assay: Antifungal activity against Candida albicans
Trichophyton rubrum = assay: Antifungal activity against Trichophyton rubrum
Candida tropicalis = assay: Antifungal activity against Candida tropicalis
Aspergillus fumigatus = assay: Antifungal activity against Aspergillus fumigatus
Candida parapsilosis = assay: Antifungal activity against Candida parapsilosis; conditions: Lodderomyces parapsilosis

| Structure (SMILES) | MIC80 (Fonsecaea pedrosoi) | MIC80 (Sporothrix schenckii) | MIC80 (Cryptococcus neoformans) | MIC80 (Candida albicans) | MIC80 (Trichophyton rubrum) | MIC80 (Candida tropicalis) | MIC80 (Aspergillus fumigatus) | MIC80 (Candida parapsilosis) |
| --- | --- | --- | --- | --- | --- | --- | --- | --- |
| CN(Cc1ccc(-n2cnn(Cc3ccc(Cl)cc3)c2=O)cc1)CC(O)(Cn1cncn1)c1ccc(F)cc1F (configuration not stated) | 0.125 µg/mL (≈ 0.221 µM) | 64 µg/mL (≈ 113 µM) | 0.5 µg/mL (≈ 0.883 µM) | 0.002 µg/mL (≈ 0.00353 µM) | 0.5 µg/mL (≈ 0.883 µM) | 0.0625 µg/mL (≈ 0.11 µM) | 4 µg/mL (≈ 7.07 µM) | 0.008 µg/mL (≈ 0.0141 µM) |
| CN(Cc1ccc(-n2cnn(Cc3cc(F)ccc3Br)c2=O)cc1)CC(O)(Cn1cncn1)c1ccc(F)cc1F (configuration not stated) | 0.25 µg/mL (≈ 0.398 µM) | 16 µg/mL (≈ 25.5 µM) | 0.5 µg/mL (≈ 0.796 µM) | 0.002 µg/mL (≈ 0.00318 µM) | 2 µg/mL (≈ 3.18 µM) | 0.25 µg/mL (≈ 0.398 µM) | 32 µg/mL (≈ 50.9 µM) | 0.008 µg/mL (≈ 0.0127 µM) |
| Cc1ccc(C(=O)Cn2ncn(-c3ccc(CN(C)CC(O)(Cn4cncn4)c4ccc(F)cc4F)cc3)c2=O)c(C)c1 (configuration not stated) | 0.0625 µg/mL (≈ 0.106 µM) | 64 µg/mL (≈ 109 µM) | 0.5 µg/mL (≈ 0.851 µM) | 0.002 µg/mL (≈ 0.0034 µM) | 0.5 µg/mL (≈ 0.851 µM) | 0.0625 µg/mL (≈ 0.106 µM) | 8 µg/mL (≈ 13.6 µM) | 0.125 µg/mL (≈ 0.213 µM) |
| CN(Cc1ccc(-n2cnn(Cc3ccc(Br)cc3F)c2=O)cc1)CC(O)(Cn1cncn1)c1ccc(F)cc1F (configuration not stated) | 0.125 µg/mL (≈ 0.199 µM) | 64 µg/mL (≈ 102 µM) | 0.125 µg/mL (≈ 0.199 µM) | 0.002 µg/mL (≈ 0.00318 µM) | 0.5 µg/mL (≈ 0.796 µM) | 0.0625 µg/mL (≈ 0.0995 µM) | 4 µg/mL (≈ 6.36 µM) | 0.008 µg/mL (≈ 0.0127 µM) |
| CCc1ccc(C(=O)Cn2ncn(-c3ccc(CN(C)CC(O)(Cn4cncn4)c4ccc(F)cc4F)cc3)c2=O)cc1 (configuration not stated) | 8 µg/mL (≈ 13.6 µM) | 64 µg/mL (≈ 109 µM) | 16 µg/mL (≈ 27.2 µM) | 0.25 µg/mL (≈ 0.425 µM) | 32 µg/mL (≈ 54.5 µM) | 0.5 µg/mL (≈ 0.851 µM) | 64 µg/mL (≈ 109 µM) | 2 µg/mL (≈ 3.4 µM) |
| CN(Cc1ccc(-n2cnn(Cc3ccc(Cl)cc3Cl)c2=O)cc1)CC(O)(Cn1cncn1)c1ccc(F)cc1F (configuration not stated) | 0.125 µg/mL (≈ 0.208 µM) | 4 µg/mL (≈ 6.66 µM) | 0.008 µg/mL (≈ 0.0133 µM) | 0.002 µg/mL (≈ 0.00333 µM) | 0.25 µg/mL (≈ 0.416 µM) | 0.0625 µg/mL (≈ 0.104 µM) | 2 µg/mL (≈ 3.33 µM) | 0.008 µg/mL (≈ 0.0133 µM) |
| CN(Cc1ccc(-n2cnn(Cc3cccc(C(F)(F)F)c3)c2=O)cc1)CC(O)(Cn1cncn1)c1ccc(F)cc1F (configuration not stated) | 0.125 µg/mL (≈ 0.208 µM) | 64 µg/mL (≈ 107 µM) | 0.125 µg/mL (≈ 0.208 µM) | 0.002 µg/mL (≈ 0.00334 µM) | 0.5 µg/mL (≈ 0.834 µM) | 0.0625 µg/mL (≈ 0.104 µM) | 16 µg/mL (≈ 26.7 µM) | 0.008 µg/mL (≈ 0.0133 µM) |
| CN(Cc1ccc(-n2cnn(Cc3ccc(C(F)(F)F)cc3)c2=O)cc1)CC(O)(Cn1cncn1)c1ccc(F)cc1F (configuration not stated) | 0.0625 µg/mL (≈ 0.104 µM) | 16 µg/mL (≈ 26.7 µM) | 0.25 µg/mL (≈ 0.417 µM) | 0.001 µg/mL (≈ 0.00167 µM) | 0.5 µg/mL (≈ 0.834 µM) | 0.0625 µg/mL (≈ 0.104 µM) | 8 µg/mL (≈ 13.3 µM) | 0.008 µg/mL (≈ 0.0133 µM) |
| CN(Cc1ccc(-n2cnn(CC(=O)c3ccc(Cl)cc3)c2=O)cc1)CC(O)(Cn1cncn1)c1ccc(F)cc1F (configuration not stated) | 0.25 µg/mL (≈ 0.421 µM) | 64 µg/mL (≈ 108 µM) | 2 µg/mL (≈ 3.37 µM) | 0.004 µg/mL (≈ 0.00673 µM) | 4 µg/mL (≈ 6.73 µM) | 0.0625 µg/mL (≈ 0.105 µM) | 64 µg/mL (≈ 108 µM) | 0.03 µg/mL (≈ 0.0505 µM) |
| CN(Cc1ccc(-n2cnn(Cc3cccc(Cl)c3)c2=O)cc1)CC(O)(Cn1cncn1)c1ccc(F)cc1F (configuration not stated) | 0.125 µg/mL (≈ 0.221 µM) | 32 µg/mL (≈ 56.5 µM) | 0.5 µg/mL (≈ 0.883 µM) | 0.016 µg/mL (≈ 0.0283 µM) | 0.5 µg/mL (≈ 0.883 µM) | 0.5 µg/mL (≈ 0.883 µM) | 8 µg/mL (≈ 14.1 µM) | 4 µg/mL (≈ 7.07 µM) |
| CN(Cc1ccc(-n2cnn(Cc3ccc(F)cc3Br)c2=O)cc1)CC(O)(Cn1cncn1)c1ccc(F)cc1F (configuration not stated) | 0.25 µg/mL (≈ 0.398 µM) | 64 µg/mL (≈ 102 µM) | 0.125 µg/mL (≈ 0.199 µM) | 0.004 µg/mL (≈ 0.00636 µM) | 1 µg/mL (≈ 1.59 µM) | 0.125 µg/mL (≈ 0.199 µM) | 16 µg/mL (≈ 25.5 µM) | 0.008 µg/mL (≈ 0.0127 µM) |
| CN(Cc1ccc(-n2cnn(Cc3ccc(Br)cc3)c2=O)cc1)CC(O)(Cn1cncn1)c1ccc(F)cc1F (configuration not stated) | 0.0625 µg/mL (≈ 0.102 µM) | 64 µg/mL (≈ 105 µM) | 0.008 µg/mL (≈ 0.0131 µM) | 0.002 µg/mL (≈ 0.00328 µM) | 0.25 µg/mL (≈ 0.41 µM) | 0.0625 µg/mL (≈ 0.102 µM) | 8 µg/mL (≈ 13.1 µM) | 0.008 µg/mL (≈ 0.0131 µM) |
| CN(Cc1ccc(-n2cnn(Cc3ccc(C(C)(C)C)cc3)c2=O)cc1)CC(O)(Cn1cncn1)c1ccc(F)cc1F (configuration not stated) | 0.25 µg/mL (≈ 0.425 µM) | 32 µg/mL (≈ 54.5 µM) | 2 µg/mL (≈ 3.4 µM) | 0.031 µg/mL (≈ 0.0528 µM) | 0.5 µg/mL (≈ 0.851 µM) | 1 µg/mL (≈ 1.7 µM) | 8 µg/mL (≈ 13.6 µM) | 4 µg/mL (≈ 6.81 µM) |
| CN(Cc1ccc(-n2cnn(Cc3ccc(I)cc3)c2=O)cc1)CC(O)(Cn1cncn1)c1ccc(F)cc1F (configuration not stated) | 0.0625 µg/mL (≈ 0.0951 µM) | 64 µg/mL (≈ 97.3 µM) | 0.25 µg/mL (≈ 0.38 µM) | 0.031 µg/mL (≈ 0.0472 µM) | 0.25 µg/mL (≈ 0.38 µM) | 1 µg/mL (≈ 1.52 µM) | 2 µg/mL (≈ 3.04 µM) | 0.031 µg/mL (≈ 0.0472 µM) |
| CN(Cc1ccc(-n2cnn(CC(=O)c3ccc(C(C)(C)C)cc3)c2=O)cc1)CC(O)(Cn1cncn1)c1ccc(F)cc1F (configuration not stated) | 2 µg/mL (≈ 3.25 µM) | 64 µg/mL (≈ 104 µM) | 32 µg/mL (≈ 52 µM) | 0.0625 µg/mL (≈ 0.102 µM) | 64 µg/mL (≈ 104 µM) | 0.5 µg/mL (≈ 0.812 µM) | 64 µg/mL (≈ 104 µM) | 2 µg/mL (≈ 3.25 µM) |
| Cc1ccc(C(=O)Cn2ncn(-c3ccc(CN(C)CC(O)(Cn4cncn4)c4ccc(F)cc4F)cc3)c2=O)cc1 (configuration not stated) | 0.125 µg/mL (≈ 0.218 µM) | 64 µg/mL (≈ 112 µM) | 0.125 µg/mL (≈ 0.218 µM) | 0.002 µg/mL (≈ 0.00349 µM) | 1 µg/mL (≈ 1.74 µM) | 0.0312 µg/mL (≈ 0.0545 µM) | 16 µg/mL (≈ 27.9 µM) | 0.008 µg/mL (≈ 0.0139 µM) |
| CN(Cc1ccc(-n2cnn(CC(=O)c3ccc(Cl)cc3Cl)c2=O)cc1)CC(O)(Cn1cncn1)c1ccc(F)cc1F (configuration not stated) | 4 µg/mL (≈ 6.36 µM) | 64 µg/mL (≈ 102 µM) | 16 µg/mL (≈ 25.5 µM) | 0.031 µg/mL (≈ 0.0493 µM) | 32 µg/mL (≈ 50.9 µM) | 0.125 µg/mL (≈ 0.199 µM) | 64 µg/mL (≈ 102 µM) | 1 µg/mL (≈ 1.59 µM) |
| Cc1cccc(Cn2ncn(-c3ccc(CN(C)CC(O)(Cn4cncn4)c4ccc(F)cc4F)cc3)c2=O)c1 (configuration not stated) | 1.25 µg/mL (≈ 2.29 µM) | 64 µg/mL (≈ 117 µM) | 1 µg/mL (≈ 1.83 µM) | 0.004 µg/mL (≈ 0.00733 µM) | 0.5 µg/mL (≈ 0.916 µM) | 0.125 µg/mL (≈ 0.229 µM) | 16 µg/mL (≈ 29.3 µM) | 0.008 µg/mL (≈ 0.0147 µM) |
| CN(Cc1ccc(-n2cnn(Cc3ccc(OC(F)(F)F)cc3)c2=O)cc1)CC(O)(Cn1cncn1)c1ccc(F)cc1F (configuration not stated) | 0.125 µg/mL (≈ 0.203 µM) | 32 µg/mL (≈ 52 µM) | 0.016 µg/mL (≈ 0.026 µM) | 0.002 µg/mL (≈ 0.00325 µM) | 0.25 µg/mL (≈ 0.406 µM) | 0.0312 µg/mL (≈ 0.0508 µM) | 8 µg/mL (≈ 13 µM) | 0.008 µg/mL (≈ 0.013 µM) |
| CN(Cc1ccc(-n2cnn(Cc3ccccc3Cl)c2=O)cc1)CC(O)(Cn1cncn1)c1ccc(F)cc1F (configuration not stated) | 0.5 µg/mL (≈ 0.883 µM) | 32 µg/mL (≈ 56.5 µM) | 1 µg/mL (≈ 1.77 µM) | 0.004 µg/mL (≈ 0.00707 µM) | 4 µg/mL (≈ 7.07 µM) | 0.125 µg/mL (≈ 0.221 µM) | 32 µg/mL (≈ 56.5 µM) | 0.06 µg/mL (≈ 0.106 µM) |
| CN(Cc1ccc(-n2cnn(Cc3ccccc3F)c2=O)cc1)CC(O)(Cn1cncn1)c1ccc(F)cc1F (configuration not stated) | 0.0625 µg/mL (≈ 0.114 µM) | 64 µg/mL (≈ 116 µM) | 1 µg/mL (≈ 1.82 µM) | 0.031 µg/mL (≈ 0.0564 µM) | 1 µg/mL (≈ 1.82 µM) | 0.0625 µg/mL (≈ 0.114 µM) | 32 µg/mL (≈ 58.2 µM) | 2 µg/mL (≈ 3.64 µM) |
| CN(Cc1ccc(-n2cnn(Cc3cccc(I)c3)c2=O)cc1)CC(O)(Cn1cncn1)c1ccc(F)cc1F (configuration not stated) | 0.0625 µg/mL (≈ 0.0951 µM) | 64 µg/mL (≈ 97.3 µM) | 0.25 µg/mL (≈ 0.38 µM) | 0.002 µg/mL (≈ 0.00304 µM) | 0.25 µg/mL (≈ 0.38 µM) | 0.0625 µg/mL (≈ 0.0951 µM) | 2 µg/mL (≈ 3.04 µM) | 0.008 µg/mL (≈ 0.0122 µM) |
| CN(Cc1ccc(-n2cnn(Cc3ccccc3)c2=O)cc1)CC(O)(Cn1cncn1)c1ccc(F)cc1F (configuration not stated) | 0.5 µg/mL (≈ 0.941 µM) | 64 µg/mL (≈ 120 µM) | 64 µg/mL (≈ 120 µM) | 0.031 µg/mL (≈ 0.0583 µM) | 16 µg/mL (≈ 30.1 µM) | 1 µg/mL (≈ 1.88 µM) | 64 µg/mL (≈ 120 µM) | 0.016 µg/mL (≈ 0.0301 µM) |
| CCc1ccc(Cn2ncn(-c3ccc(CN(C)CC(O)(Cn4cncn4)c4ccc(F)cc4F)cc3)c2=O)cc1 (configuration not stated) | 0.25 µg/mL (≈ 0.447 µM) | 64 µg/mL (≈ 114 µM) | 0.5 µg/mL (≈ 0.893 µM) | 0.008 µg/mL (≈ 0.0143 µM) | 0.5 µg/mL (≈ 0.893 µM) | 0.25 µg/mL (≈ 0.447 µM) | 8 µg/mL (≈ 14.3 µM) | 0.008 µg/mL (≈ 0.0143 µM) |
